Values joined by “and” are separate entries in the source; they are usually repeats but may differ in a detail not shown here. Equal values may be shown once.
Columns and labels:
[1] = Rat biodistribution 1 hour after tail vein injection; type: in vivo, Sprague-Dawley rats; settings: for Activity in the thyroid / Radioactivity in / cleared from the body: rats
Experimental: (§1) The radioiodinated HBS (^131I-HBS) solution (100 μL), prepared in Example 3, was injected […] into a tail vein of three Sprague-Dawley rats (180-220 g). After one hour, the animals were sacrificed and the tissues and organs of interest were removed and weighed. The amount of radioactivity in each organ was determined by counting the tissue sample with a sodium iodide detector coupled to a multi-channel analyzer. The counts in the tissues were compared to the average counts of three 100 μL aliquots of ^131I-HBS counted in the same manner. The percentage of dose in the bone was calculated by assuming the femur to represent 1/25 the weight of the total skeletal system. The blood dose was calculated by assuming that blood comprises 6.5% of the total body weight. Muscle dose was calculated by assuming that muscle comprises 43% of the total body weight.
The biodistribution of the radioiodinated tyramine prepared in Example 6 was determined as in Example 4 (using 2 rats).

[2] = target: T1, thyroxine-binding globulin (Homo sapiens, UniProt P05543); settings: concentrations up to 0.2 mM; cited from earlier work
T1 sequence (P05543 21-415): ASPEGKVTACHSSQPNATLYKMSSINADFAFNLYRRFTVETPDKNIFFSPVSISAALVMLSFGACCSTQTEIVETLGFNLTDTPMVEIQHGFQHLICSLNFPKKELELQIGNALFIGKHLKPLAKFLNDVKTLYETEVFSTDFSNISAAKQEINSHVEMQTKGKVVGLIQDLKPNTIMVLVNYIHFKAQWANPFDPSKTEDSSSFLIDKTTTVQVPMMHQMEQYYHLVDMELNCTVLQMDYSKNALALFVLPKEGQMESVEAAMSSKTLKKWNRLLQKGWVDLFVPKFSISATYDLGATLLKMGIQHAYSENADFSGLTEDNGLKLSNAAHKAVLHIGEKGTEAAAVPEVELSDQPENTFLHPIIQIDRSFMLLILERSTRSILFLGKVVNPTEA

prealbumin = prealbumin (Homo sapiens, UniProt P02766); settings: concentrations up to 0.2 mM; cited from earlier work
albumin = albumin (Homo sapiens, UniProt P02768); settings: concentrations up to 0.2 mM; cited from earlier work
albumin, sequence (P02768 25-609, species assumed): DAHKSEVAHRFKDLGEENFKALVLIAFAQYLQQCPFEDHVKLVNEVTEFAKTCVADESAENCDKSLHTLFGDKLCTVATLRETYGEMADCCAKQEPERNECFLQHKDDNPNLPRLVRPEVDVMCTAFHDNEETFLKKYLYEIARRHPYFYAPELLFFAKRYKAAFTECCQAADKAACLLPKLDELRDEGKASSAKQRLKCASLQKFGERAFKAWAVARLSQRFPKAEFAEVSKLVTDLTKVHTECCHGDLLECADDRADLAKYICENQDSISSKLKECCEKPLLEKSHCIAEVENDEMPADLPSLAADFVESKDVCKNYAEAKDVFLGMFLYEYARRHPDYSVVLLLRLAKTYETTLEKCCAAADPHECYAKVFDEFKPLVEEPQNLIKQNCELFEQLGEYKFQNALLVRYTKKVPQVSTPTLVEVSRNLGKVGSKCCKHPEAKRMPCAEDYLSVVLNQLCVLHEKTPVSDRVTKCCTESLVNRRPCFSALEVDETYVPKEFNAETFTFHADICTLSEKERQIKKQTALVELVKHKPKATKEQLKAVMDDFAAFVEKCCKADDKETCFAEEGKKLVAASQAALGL

[3] = Two hour rat biodistribution after intrathecal administration; type: in vivo, Sprague-Dawley rats
Experimental: as §1
An I-HBS solution was prepared as in Example 3. Twenty μL of this solution was injected intrathecally in two Sprague-Dawley rats (100-150 g). After two hours the rats were sacrificed and dissected. The amount of radio activity in various organs and tissues was determined as in Example 4.

[4] = 1 hour post injection, tail vein
[5] = average of 2 rats, determined as in Example 4 (percent of dose, 1 hour post injection, tail vein)
[6] = individual rat, determined as in Example 4 (percent of dose, 1 hour post injection, tail vein)
[7] = average of two rats, two hours after intrathecal administration of 20 μL
[8] = two hours after intrathecal administration, rats
[9] = average of three rats, 1 Hour After Injection, tail vein
[10] = individual rat, 1 Hour After Injection, tail vein

Question: Which “Activity in the thyroid” value [1, 4] does the source give for `NCCc1ccc(O)c([131I])c1` [radioiodinated tyramine] here?
Answer: very little

Question: What about the “Radioactivity in / cleared from the body” value [1, 4] of the same molecule?
Answer: most radioactivity had cleared the body

Question: What about the “Biodistribution, Blood, Average” value [1, 5] of the same molecule?
Answer: 1.13

Question: And the “Biodistribution, Bone, Average” value [1, 5]?
Answer: 0.25

Question: What about the “Biodistribution, Heart, Average” value [1, 5] of the same molecule?
Answer: 0.03

Question: What about the “Biodistribution, Kidney, Average” value [1, 5] of the same molecule?
Answer: 0.26

Question: And the “Biodistribution, Lg. Int., Average” value [1, 5]?
Answer: 1.24

Question: And the “Biodistribution, Liver, Average” value [1, 5]?
Answer: 0.52

Question: What about the “Biodistribution, Lung, Average” value [1, 5] of the same molecule?
Answer: 0.15

Question: And the “Biodistribution, Muscle, Average” value [1, 5]?
Answer: 1.09

Question: And the “Biodistribution, Sm. Int., Average” value [1, 5]?
Answer: 4.07

Question: And the “Biodistribution, Spleen, Average” value [1, 5]?
Answer: 0.01

Question: What about the “Biodistribution, Stomach, Average” value [1, 5] of the same molecule?
Answer: 0.43

Question: What about the “Biodistribution, Tail, Average” value [1, 5] of the same molecule?
Answer: 0.49

Question: And the “Biodistribution, Thyroid, Average” value [1, 5]?
Answer: 0.09

Question: And the “Biodistribution, Blood” value [1, 6]?
Answer: 1.19 and 1.06

Question: And the “Biodistribution, Bone” value [1, 6]?
Answer: 0.30 and 0.20

Question: What about the “Biodistribution, Heart” value [1, 6] of the same molecule?
Answer: 0.03 and 0.02

Question: And the “Biodistribution, Kidney” value [1, 6]?
Answer: 0.26 and 0.25

Question: And the “Biodistribution, Lg. Int.” value [1, 6]?
Answer: 0.46 and 2.02

Question: And the “Biodistribution, Liver” value [1, 6]?
Answer: 0.46 and 0.57

Question: And the “Biodistribution, Lung” value [1, 6]?
Answer: 0.03 and 0.26

Question: What about the “Biodistribution, Muscle” value [1, 6] of the same molecule?
Answer: 1.31 and 0.87

Question: What about the “Biodistribution, Sm. Int.” value [1, 6] of the same molecule?
Answer: 3.47 and 4.67

Question: And the “Biodistribution, Spleen” value [1, 6]?
Answer: 0.01

Question: What about the “Biodistribution, Stomach” value [1, 6] of the same molecule?
Answer: 0.37 and 0.48

Question: And the “Biodistribution, Tail” value [1, 6]?
Answer: 0.77 and 0.20

Question: And the “Biodistribution, Thyroid” value [1, 6]?
Answer: 0.12 and 0.07

Question: Which “Displacement of triiodothyronine from thyroxine-binding globulin” value [2] does the source give for `O=S(=O)(O)c1cc(I)c(O)c(I)c1` [diiodophenolsulphonic acid, 3,5-diiodo-4-hydroxybenzenesulphonic acid] here?
Answer: did not displace

Question: What about the “Displacement of thyroxine from prealbumin-binding sites” value (prealbumin) of the same molecule?
Answer: did selectively display thyroxine

Question: What about the “Displacement of triiodothyronine from albumin” value (albumin) of the same molecule?
Answer: did not displace

Question: For `O=S(=O)([O-])c1ccc(O)c([131I])c1.[Na+]` [^131I-HBS], which “% Injected Dose, Bladder” value [3, 7] is on record?
Answer: 0.3 % Injected Dose

Question: And the “% Injected Dose, Blood” value [3, 7]?
Answer: 0.7 % Injected Dose

Question: And the “% Injected Dose, Bone” value [3, 7]?
Answer: 1.3 % Injected Dose

Question: What about the “% Injected Dose, Brain” value [3, 7] of the same molecule?
Answer: 1.6 % Injected Dose

Question: What about the “% Injected Dose, Caecum” value [3, 7] of the same molecule?
Answer: 0.0 % Injected Dose

Question: And the “% Injected Dose, Colon” value [3, 7]?
Answer: 0.9 % Injected Dose

Question: And the “% Injected Dose, Heart” value [3, 7]?
Answer: 0.0 % Injected Dose

Question: What about the “% Injected Dose, Kidney” value [3, 7] of the same molecule?
Answer: 0.3 % Injected Dose

Question: And the “% Injected Dose, Liver” value [3, 7]?
Answer: 0.2 % Injected Dose

Question: What about the “% Injected Dose, Lung” value [3, 7] of the same molecule?
Answer: 0.0 % Injected Dose

Question: What about the “% Injected Dose, Muscle” value [3, 7] of the same molecule?
Answer: 0.5 % Injected Dose

Question: And the “% Injected Dose, Sm. Intestine” value [3, 7]?
Answer: 0.5 % Injected Dose

Question: And the “% Injected Dose, Spleen” value [3, 7]?
Answer: 0.0 % Injected Dose

Question: And the “% Injected Dose, Stomach” value [3, 7]?
Answer: 0.3 % Injected Dose

Question: What about the “% Injected Dose, Thyroid” value [3, 7] of the same molecule?
Answer: 0.0 % Injected Dose

Question: And the “% Injected Dose, Urine” value ([3]; average of two rats, two hours after intrathecal administration of 20 μL, recovery of urine may have been less than quantitative)?
Answer: 88 % Injected Dose

Question: What about the “Clearance of radioactivity through the kidney” value [3, 8] of the same molecule?
Answer: had cleared the kidney

Question: And the “Radioactivity present in the thyroid” value [3, 8]?
Answer: little or no radioactivity

Question: And the “Activity in the urine” value ([1]; 1 hour post injection, all animals)?
Answer: Almost all the activity

Question: And the “Activity in the thyroid” value [1, 4]?
Answer: lack of activity

Question: What about the “Radioactivity in / cleared from the body” value [1, 4] of the same molecule?
Answer: very little activity

Question: What about the “Percent Injected Dose, Heart, Average” value [1, 9] of the same molecule?
Answer: 0.01 Percent Injected Dose

Question: And the “Percent Injected Dose, Kidney, Average” value [1, 9]?
Answer: 0.12 Percent Injected Dose

Question: What about the “Percent Injected Dose, Lg. Int., Average” value [1, 9] of the same molecule?
Answer: 0.08 Percent Injected Dose

Question: And the “Percent Injected Dose, Liver, Average” value [1, 9]?
Answer: 0.06 Percent Injected Dose

Question: What about the “Percent Injected Dose, Lung, Average” value [1, 9] of the same molecule?
Answer: 0.02 Percent Injected Dose

Question: And the “Percent Injected Dose, Sm Int., Average” value [1, 9]?
Answer: 1.10 Percent Injected Dose

Question: And the “Percent Injected Dose, Spleen, Average” value [1, 9]?
Answer: 0.00 Percent Injected Dose

Question: And the “Percent Injected Dose, Stomach, Average” value [1, 9]?
Answer: 0.29 Percent Injected Dose

Question: And the “Percent Injected Dose, Tail, Average” value [1, 9]?
Answer: 0.08 Percent Injected Dose

Question: What about the “Percent Injected Dose, Thyroid, Average” value [1, 9] of the same molecule?
Answer: 0.00 Percent Injected Dose

Question: What about the “Percent Injected Dose, Blood, Average” value ([1]; average of three rats, 1 Hour After Injection, tail vein, blood taken as 6.5% of body weight) of the same molecule?
Answer: 0.16 Percent Injected Dose

Question: What about the “Percent Injected Dose, Bone, Average” value ([1]; average of three rats, 1 Hour After Injection, tail vein, femur taken as 1/25 of skeleton) of the same molecule?
Answer: 1.00 Percent Injected Dose

Question: What about the “Percent Injected Dose, Muscle, Average” value ([1]; average of three rats, 1 Hour After Injection, tail vein, muscle taken as 43% of body weight) of the same molecule?
Answer: 0.40 Percent Injected Dose

Question: And the “Percent Injected Dose, Heart” value [1, 10]?
Answer: 0.01 Percent Injected Dose (2×) and 0.02 Percent Injected Dose

Question: And the “Percent Injected Dose, Kidney” value [1, 10]?
Answer: 0.19 Percent Injected Dose and 0.10 Percent Injected Dose and 0.08 Percent Injected Dose

Question: What about the “Percent Injected Dose, Lg. Int.” value [1, 10] of the same molecule?
Answer: 0.08 Percent Injected Dose and 0.12 Percent Injected Dose and 0.05 Percent Injected Dose

Question: And the “Percent Injected Dose, Liver” value [1, 10]?
Answer: 0.05 Percent Injected Dose and 0.08 Percent Injected Dose and 0.06 Percent Injected Dose

Question: What about the “Percent Injected Dose, Lung” value [1, 10] of the same molecule?
Answer: 0.01 Percent Injected Dose and 0.03 Percent Injected Dose and 0.02 Percent Injected Dose

Question: And the “Percent Injected Dose, Sm Int.” value [1, 10]?
Answer: 1.51 Percent Injected Dose and 0.67 Percent Injected Dose and 1.24 Percent Injected Dose

Question: What about the “Percent Injected Dose, Spleen” value [1, 10] of the same molecule?
Answer: 0.01 Percent Injected Dose (2×) and 0.00 Percent Injected Dose

Question: What about the “Percent Injected Dose, Stomach” value [1, 10] of the same molecule?
Answer: 0.33 Percent Injected Dose and 0.31 Percent Injected Dose and 0.24 Percent Injected Dose

Question: And the “Percent Injected Dose, Tail” value [1, 10]?
Answer: 0.01 Percent Injected Dose and 0.16 Percent Injected Dose and 0.09 Percent Injected Dose

Question: What about the “Percent Injected Dose, Thyroid” value [1, 10] of the same molecule?
Answer: 0.00 Percent Injected Dose

Question: And the “Percent Injected Dose, Blood” value ([1]; individual rat, 1 Hour After Injection, tail vein, blood taken as 6.5% of body weight)?
Answer: 0.14 Percent Injected Dose and 0.18 Percent Injected Dose and 0.15 Percent Injected Dose

Question: What about the “Percent Injected Dose, Bone” value ([1]; individual rat, 1 Hour After Injection, tail vein, femur taken as 1/25 of skeleton) of the same molecule?
Answer: 0.37 Percent Injected Dose and 0.16 Percent Injected Dose

Question: And the “Percent Injected Dose, Muscle” value ([1]; individual rat, 1 Hour After Injection, tail vein, muscle taken as 43% of body weight)?
Answer: 0.88 Percent Injected Dose and 0.38 Percent Injected Dose and 0.05 Percent Injected Dose
